The target in test [1] is T1, Thromboxane A2 receptor (Homo sapiens) (UniProt P21731).
T1 sequence (whole entry): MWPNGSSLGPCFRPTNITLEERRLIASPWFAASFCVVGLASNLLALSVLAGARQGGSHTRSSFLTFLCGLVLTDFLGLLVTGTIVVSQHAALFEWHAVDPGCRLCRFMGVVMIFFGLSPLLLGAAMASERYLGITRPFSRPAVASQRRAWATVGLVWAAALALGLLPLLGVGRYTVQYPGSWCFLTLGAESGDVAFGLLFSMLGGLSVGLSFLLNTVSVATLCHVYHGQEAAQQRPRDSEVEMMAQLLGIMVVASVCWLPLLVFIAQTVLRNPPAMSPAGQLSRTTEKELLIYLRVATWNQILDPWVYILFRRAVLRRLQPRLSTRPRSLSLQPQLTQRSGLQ
In words: TP receptor affinity, expressed as competition factor (CF) which is the ratio of IC50 of test to IC50 of standard.

In test [2] the target is T1, Thromboxane A2 receptor (Homo sapiens). As to the kind of experiment: Antiaggregatory potency relative to TP-receptor antagonist SQ 29548. The class given is functional.
Test [3] has as its target T2, Prostacyclin receptor (Homo sapiens, UniProt P43119). In words: (§1) Compound was tested for Prostanoid IP receptor affinity and expressed as competition factor (CF) which is the ratio of IC50 of test to IC50 of standard.
For test [4], the species on record is Homo sapiens. As to the kind of experiment: Compound was tested for its ability to inhibit blood platelet aggregation induced by ADP. The class given is functional.
The species entered for test [5] is Homo sapiens. As to the kind of experiment: Compound was tested for its ability to inhibit blood platelet aggregation induced by TP-receptor agonist U 46619. It counts as functional.
The target of test [6] is T2, Prostacyclin receptor. The test is described as §1. This is another data set of the same source.

Results on 39 compounds are retold here after ChEMBL document CHEMBL1151568, “New TXA2/PGH2 receptor antagonists based on the carbacyclin skeleton” (Bioorg Med Chem Lett, 1993).

Some results are limits rather than exact numbers.

T2 sequence (P43119 whole entry): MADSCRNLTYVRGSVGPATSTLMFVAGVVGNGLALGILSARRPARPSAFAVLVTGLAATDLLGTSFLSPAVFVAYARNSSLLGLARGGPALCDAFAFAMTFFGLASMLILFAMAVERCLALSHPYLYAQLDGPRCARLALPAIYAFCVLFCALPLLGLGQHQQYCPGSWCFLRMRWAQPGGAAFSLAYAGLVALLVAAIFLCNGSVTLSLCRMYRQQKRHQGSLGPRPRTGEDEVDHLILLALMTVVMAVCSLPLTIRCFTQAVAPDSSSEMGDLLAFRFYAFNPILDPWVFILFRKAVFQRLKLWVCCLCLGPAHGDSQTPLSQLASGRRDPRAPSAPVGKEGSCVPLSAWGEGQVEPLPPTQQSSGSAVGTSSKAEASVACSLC

Take `O=C(O)CC/C=C1\C[C@H]2C[C@@H](O)[C@H](/C=N/NC(=O)Nc3cccc(Cl)c3)[C@H]2C1`: in test [1], the CF was determined as 50. This compound also returned a Relative potency in test [2] of 0.004.

Turning to `O=C(O)CCC/C=C1\C[C@H]2C[C@@H](O)[C@H](/C=N/OCc3ccc4ccccc4c3)[C@H]2C1`, the CF in test [1] was found to be 280; on Prostacyclin receptor [3] it was 31. Further, the IC50 (commonly the point on the concentration scale where inhibition reaches its midpoint) in the test filed under Homo sapiens [4] was determined as 1100 nM; in the test listed under Homo sapiens [5] it was 1600 nM. The Relative potency in test [2] was 0.03.

Consider `O=C(O)CCC/C=C1/C[C@H]2CC[C@H](/C=N/NC(=O)Nc3ccccc3)[C@H]2C1`, for which the CF in test [1] was determined as 3. The compound also showed a Relative potency in test [2] of 0.002.

In the case of `O=C(O)CC/C=C1/C[C@H]2C[C@@H](O)[C@H](/C=N/NC(=O)Nc3ccc([N+](=O)[O-])cc3)[C@H]2C1`, in test [1], the CF turned out to be 0.5. The Relative potency in test [2] was found to be 8.3.

As for `O=C(O)COC/C=C1\C[C@H]2C[C@@H](O)[C@H](/C=N/NC(=O)Nc3cccc(Cl)c3)[C@H]2C1`, in test [1], the CF was 18. Moreover, in test [2], the Relative potency was 0.03.

Consider `O=C(O)COC/C=C1/C[C@H]2C[C@@H](O)[C@H](/C=N/NC(=O)Nc3cccc(Cl)c3)[C@H]2C1`, for which, in test [1], the CF was 4. Also, the Relative potency in test [2] came to 0.11.

Consider `O=C(O)CC/C=C1/C[C@H]2C[C@@H](O)[C@H](/C=N/NC(=O)Nc3ccc(Cl)c(Cl)c3)[C@H]2C1`, for which, in test [1], the CF was 0.8. Further, the Relative potency in test [2] was found to be 0.33.

As for `O=C(O)CCC/C=C1/C[C@H]2C[C@@H](O)[C@H](/C=N/NC(=O)Nc3cccc(Cl)c3)[C@H]2C1`, in test [1], the CF is 0.2. In test [2], this compound yielded a Relative potency of 0.25.

In the case of `O=C(O)CCC/C=C1\C[C@H]2C[C@@H](O)[C@H](/C=N/OCc3ccc(F)cc3)[C@H]2C1`, the CF in test [1] is more than 1000; on Prostacyclin receptor [3] it was 20. In addition, the IC50 in the test filed under Homo sapiens [4] turned out to be 1500 nM; in the test filed under Homo sapiens [5], 1900 nM. Further, in test [2], the Relative potency was found to be 0.009.

In the case of `O=C(O)CC/C=C1\C[C@H]2C[C@@H](O)[C@H](/C=N/NC(=O)Nc3ccccc3)[C@H]2C1`, in test [1], the CF came to 454. The compound also came in with a Relative potency in test [2] of 0.0007.

As to `O=C(O)CCC/C=C1\C[C@H]2CC[C@H](/C=N/NC(=O)Nc3ccccc3)[C@H]2C1`, in test [1], the CF was found to be 40. Besides, the Relative potency in test [2] is 0.0004.

For the compound `O=C(O)CC/C=C1\C[C@H]2C[C@@H](O)[C@H](/C=N/NC(=O)Nc3ccc(Cl)c(Cl)c3)[C@H]2C1`, the CF in test [1] worked out at 16. Also, in test [2], the Relative potency is 0.008.

For `O=C(O)CCC/C=C1/C[C@H]2C[C@@H](O)[C@H](/C=N/OCc3ccccc3)[C@H]2C1`, the CF in test [1] worked out at 470; at Prostacyclin receptor [3], 100. In addition, the IC50 was more than 50000 nM in the test listed under Homo sapiens [4] and 5400 nM in the test filed under Homo sapiens [5]. The same compound showed a Relative potency in test [2] of 0.001.

As to `O=C(O)CCC/C=C1\C[C@H]2C[C@@H](O)[C@H](/C=N/NC(=O)Nc3ccc([N+](=O)[O-])cc3)[C@H]2C1`, in test [1], the CF was 0.7. In test [2], the Relative potency amounted to 0.1.

As to `O=C(O)COC/C=C1\C[C@H]2C[C@@H](O)[C@H](/C=N/NC(=O)Nc3ccc(Cl)c(Cl)c3)[C@H]2C1`, in test [1], the CF is 2.9. For the same compound, in test [2], the Relative potency is 0.11.

With `O=C(O)COC/C=C1/C[C@H]2C[C@@H](O)[C@H](/C=N/NC(=O)Nc3ccc(Cl)c(Cl)c3)[C@H]2C1`, the CF in test [1] was found to be 0.7. This compound also showed a Relative potency in test [2] of 0.33.

As to `O=C(O)CCC/C=C1\C[C@H]2CC[C@H](/C=N/NC(=O)Nc3ccc([N+](=O)[O-])cc3)[C@H]2C1`, in test [1], the CF came to 2.2. This compound came in with a Relative potency in test [2] of 0.01.

For `O=C(O)COC/C=C1/C[C@H]2C[C@@H](O)[C@H](/C=N/NC(=O)Nc3ccccc3)[C@H]2C1`, the CF in test [1] turned out to be 16. For the same compound, the Relative potency in test [2] is 0.014.

With `O=C(O)CCC/C=C1\C[C@H]2CC[C@H](/C=N/NC(=O)Nc3ccc(Cl)c(Cl)c3)[C@H]2C1`, the CF in test [1] came to 4.3. The Relative potency in test [2] is 0.002.

On to `O=C(O)CCC/C=C1\C[C@H]2C[C@@H](O)[C@H](/C=N/OCc3ccccc3)[C@H]2C1`, for which the CF was more than 1000 in test [1] and 7 at Prostacyclin receptor [3]. The IC50 in the test filed under Homo sapiens [4] is 2000 nM; in the test filed under Homo sapiens [5] it was 1900 nM. The Relative potency in test [2] amounted to 0.009.

Turning to `O=C(O)CCC/C=C1/C[C@H]2CC[C@H](/C=N/NC(=O)Nc3ccc(Cl)c(Cl)c3)[C@H]2C1`, in test [1], the CF was determined as 1.6. In test [2], this compound showed a Relative potency of 0.003.

In the case of `O=C(O)COC/C=C1\C[C@H]2C[C@@H](O)[C@H](/C=N/NC(=O)Nc3ccc([N+](=O)[O-])cc3)[C@H]2C1`, in test [1], the CF was found to be 9.4. The same compound registered a Relative potency in test [2] of 0.33.

`O=C(O)CCC/C=C1/C[C@H]2C[C@@H](O)[C@H](/C=N/OCc3ccc(F)cc3)[C@H]2C1`: the results for the CF (in test [1]; at Prostacyclin receptor [3]) were 500 and 250, respectively. In test [2], this compound yielded a Relative potency of 0.001. Further, the IC50 in the test listed under Homo sapiens [5] was 14000 nM.

For the compound `O=C(O)CC/C=C1/C[C@H]2C[C@@H](O)[C@H](/C=N/NC(=O)Nc3ccccc3)[C@H]2C1`, the CF in test [1] was 10. This compound also gave a Relative potency in test [2] of 0.059.

Turning to `O=C(O)CCC/C=C1\C[C@H]2C[C@@H](O)[C@H](/C=N\OC(c3ccccc3)c3ccccc3)[C@H]2C1`, the results for the CF (in test [1]; on Prostacyclin receptor [3]) were 95 and 160, respectively. Moreover, the IC50 in the test filed under Homo sapiens [4] came out at 1000 nM; in the test listed under Homo sapiens [5], 1600 nM. In test [2], the Relative potency was 0.03.

`O=C(O)CCC/C=C1/C[C@H]2C[C@@H](O)[C@H](/C=N/NC(=O)Nc3ccccc3)[C@H]2C1`: the CF in test [1] was 1.5. In addition, in test [2], the Relative potency was determined as 0.17.

As for `O=C(O)CCC/C=C1\C[C@H]2C[C@@H](O)[C@H](/C=N/NC(=O)Nc3ccc(Cl)c(Cl)c3)[C@H]2C1`, the CF in test [1] was 0.8. This compound also yielded a Relative potency in test [2] of 0.038.

In the case of `O=C(O)CCC/C=C1\C[C@H]2CC[C@H](/C=N/NC(=O)Nc3cccc(Cl)c3)[C@H]2C1`, the CF in test [1] was 16. For the same compound, in test [2], the Relative potency is 0.0007.

Take `O=C(O)CCC/C=C1/C[C@H]2C[C@@H](O)[C@H](/C=N/NC(=O)Nc3ccc([N+](=O)[O-])cc3)[C@H]2C1`: in test [1], the CF came to 0.1. For the same compound, the Relative potency in test [2] amounted to 0.33.

Consider `O=C(O)CCC/C=C1\C[C@H]2C[C@@H](O)[C@H](/C=N/NC(=O)Nc3ccccc3)[C@H]2C1`, for which the CF in test [1] is 20. In test [2], this compound showed a Relative potency of 0.005.

As for `O=C(O)COC/C=C1/C[C@H]2C[C@@H](O)[C@H](/C=N/NC(=O)Nc3ccc([N+](=O)[O-])cc3)[C@H]2C1`, the CF in test [1] worked out at 0.9. Further, the Relative potency in test [2] is 1.

Take `O=C(O)CCC/C=C1/C[C@H]2C[C@@H](O)[C@H](/C=N/OCc3ccc4ccccc4c3)[C@H]2C1`: the CF was found to be 90 in test [1] and 76 on Prostacyclin receptor [3]. This compound yielded a Relative potency in test [2] of 0.002. In addition, the IC50 in the test filed under Homo sapiens [5] was 2200 nM.

As to `O=C(O)CC/C=C1\C[C@H]2C[C@@H](O)[C@H](/C=N/NC(=O)Nc3ccc([N+](=O)[O-])cc3)[C@H]2C1`, the CF in test [1] was found to be 22. The Relative potency in test [2] is 0.027.

For the compound `O=C(O)COC/C=C1\C[C@H]2C[C@@H](O)[C@H](/C=N/NC(=O)Nc3ccccc3)[C@H]2C1`, the CF in test [1] was found to be 138. Further, the Relative potency in test [2] was 0.008.

As for `O=C(O)CC/C=C1/C[C@H]2C[C@@H](O)[C@H](/C=N/NC(=O)Nc3cccc(Cl)c3)[C@H]2C1`, in test [1], the CF turned out to be 2.4. For the same compound, the Relative potency in test [2] stood at 0.11.

With `O=C(O)CCC/C=C1\C[C@H]2C[C@@H](O)[C@H](/C=N/NC(=O)Nc3cccc(Cl)c3)[C@H]2C1`, the CF in test [1] was 1.6. This compound returned a Relative potency in test [2] of 0.09.

Turning to `O=C(O)CCC/C=C1/C[C@H]2C[C@@H](O)[C@H](/C=N\OC(c3ccccc3)c3ccccc3)[C@H]2C1`, in test [1], the CF is 210. For the same compound, the IC50 entry on Prostacyclin receptor [6] was “NC”; in the test filed under Homo sapiens [5] it was 23000 nM. Moreover, the Relative potency in test [2] turned out to be 0.001.

On to `O=C(O)CCC/C=C1/C[C@H]2CC[C@H](/C=N/NC(=O)Nc3ccc([N+](=O)[O-])cc3)[C@H]2C1`, for which the CF in test [1] was determined as 0.7. In test [2], this compound yielded a Relative potency of 0.01.

Consider `O=C(O)CCC/C=C1/C[C@H]2C[C@@H](O)[C@H](/C=N/NC(=O)Nc3ccc(Cl)c(Cl)c3)[C@H]2C1`, for which the CF in test [1] was found to be 0.1. In test [2], the Relative potency was determined as 1.
